Data: article PMC10817174, “Integrated drug response prediction models pinpoint repurposed drugs with effectiveness against rhabdomyosarcoma” (PLOS ONE, 2024)
“Also recorded” adds a separate entry of the source. Read-outs that look alike come from different tables or passages of the source.

Legend:
[1] = test system: RD (human embryonal rhabdomyosarcoma) cells; assay: MTT cell viability assay in RD cells; assay type: cell-based; conditions: 24 h; for anti-proliferation / anti-cancer activity in RD cells: in words; for IC50: RD-S drugs, RD cells, read-out: IC50(μM) RMS
Description: (§1) The RD (human embryonal rhabdomyosarcoma) and CCD-18Co (human colon fibroblast) cell lines were purchased from the Korean Cell Line Bank (KCLB). SJCRH30 (human alveolar rhabdomyosarcoma) cell line was purchased from the American Type Culture Collection (ATCC). RD and CCD-18Co cells were maintained in Dulbecco’s Modified Eagle’s Medium (DMEM; Gibco) supplemented with 10% fetal bovine serum (FBS; Gibco) and 1% penicillin/streptomycin (P/S; Gibco). SJCRH30 cells were maintained in Roswell Park Memorial Institute medium (RPMI 1640, Gibco) supplemented with 10% FBS and 1% P/S. Cells were grown in a humidified chamber containing 5% CO2 at 37°C. Cell line authentication was performed by short tandem repeat profile using PowerPlex® 18D system (Promega Corporation) and sequencing apparatus Applied Biosystems 3130xl Genetic Analyzer (Applied Biosystem) according to manufacturer’s protocol.
(§2) SJCRH30, RD, and CCD-18Co cells were seeded at 2 × 10^4 cells/well in 96-well plates. The candidate drugs were treated for 24 h. AZ628, BIX02189, fedratinib, nutlin-3a, VX-11e, SB590885, NSC207895, tubastatin A, CX-5461, navitoclax, GSK1070916 and the FDA-approved drug library were purchased from Selleckchem. GW.44175 was purchased from Cayman chemical. MTT (3-(4,5-Dimethylthiazol-2-yl)-2,5-Diphenyltetrazolium bromide, Sigma) cell viability detection reagent diluted in serum free medium was added to each well and incubated for 2 h at 37°C. The supernatant was removed, and 50 μL DMSO was added to dissolve the precipitate. Absorbance was measured at 570 nm using a Molecular Devices VersaMax microplate reader and SoftMax® Pro 5 software. IC50 was calculated with GraphPad Prism 7 software.

[2] = test system: CCD-18Co (human colon fibroblast) cells; assay: MTT cell viability assay in normal control cells; assay type: cell-based; conditions: for IC50 / IC50(μM) CCD-18Co: normal cell control, 24 h; for selective anti-cancer activity against the RMS cell lines: based on the CCD-18Co control results
Description: as §1, §2

GDSC-RD cell line = conditions: cited from earlier work; for Iorio_RD: Table S2, published drug response ref Iorio et al. (2016)
GDSC-SJCRH30 cell line = conditions: cited from earlier work; for Iorio_SJCRH30: Table S2, published drug response ref Iorio et al. (2016)
[3] = test system: SJCRH30 (human alveolar rhabdomyosarcoma) cells; assay: MTT cell viability assay in SJCRH30 cells; assay type: cell-based; conditions: 24 h; for anti-proliferation / anti-cancer activity in SJCRH30 cells: in words; for IC50: SJ-S drugs, SJCRH30 cells, read-out: IC50(μM) RMS
Description: as §1, §2

SJCRH30 cells = assay: Caspase-3/7 activity assay in SJCRH30 cells; assay type: cell-based, human; conditions: 24 h
Method: (§3) The activity of caspase-3/7 was detected with the CellEvent^TM Caspase-3/7 Green detection kit (Thermo Fisher Scientific, C10423), following the manufacturer’s instructions. SJCRH30 and RD cells were seeded at 2 × 10^4 cells/well in 96-well plates. […] Stained cells were observed under fluorescent microscopy (LEICA, DMI3000 B). Drugs were treated in triplicates and 4 pictures of each well were captured. The percentage of caspase-3/7 positive cells per field of view was quantified using ImageJ software.

RD cells = assay: Caspase-3/7 activity assay in RD cells; assay type: cell-based, human; conditions: 24 h
Method: as §3

Ewing’s sarcoma = test system: Ewing’s sarcoma; design: method as in PMID 26095524; conditions: Ewing’s sarcoma ref 42; cited from earlier work
[4] = heavily pre-treated soft-tissue sarcoma patients ref 43; cited from earlier work
uterine sarcoma = conditions: in vitro and in vivo ref 44; cited from earlier work
[5] = Homo sapiens, Rhabdomyosarcoma cell

Cc1cnc(Nc2ccc(F)cc2Cl)nc1-c1c[nH]c(C(=O)N[C@H](CO)c2cccc(Cl)c2)c1 [VX-11e]
anti-proliferation / anti-cancer activity in RD cells [1]: higher anti-cancer activity | IC50 [1]: 3.79 µM | IC50 ([2]; MTT): 4.04 µM | Iorio_RD (GDSC-RD cell line): S | Iorio_SJCRH30 (GDSC-SJCRH30 cell line): R

O=C(/C=C/c1cccc(S(=O)(=O)Nc2ccccc2)c1)NO [Belinostat]
anti-proliferation / anti-cancer activity in SJCRH30 cells [3]: higher anti-cancer activity; also recorded: reduced cells proliferation to a greater degree than the clinical drugs; also recorded: sensitive | IC50 [3, 5]: 0.146 µM | IC50 [3]: 0.146 µM | selective anti-cancer activity against the RMS cell lines [2]: selective anti-cancer activity | IC50(μM) CCD-18Co ([2]; MTT): No cytotoxicity | caspase-3/7 activation (SJCRH30 cells): increased level of caspase-3/7 activation | Iorio_RD (GDSC-RD cell line): R | Iorio_SJCRH30 (GDSC-SJCRH30 cell line): R | GDSC-SJCRH30 drug response (GDSC-SJCRH30 cell line): resistant

CN1CCN(c2ccc([N+](=O)[O-])c3no[n+]([O-])c23)CC1 [NSC207895]
anti-proliferation / anti-cancer activity in RD cells [1]: higher anti-cancer activity; also recorded: effectively inhibited cell proliferation compared to vincristine and cyclophosphamide | IC50 [1]: 6.57 µM | selective anti-cancer activity against the RMS cell lines [2]: selective anti-cancer activity | IC50(μM) CCD-18Co ([2]; MTT): No cytotoxicity | caspase-3/7 activation (RD cells): significantly induced the activation of caspase-3/7 | Iorio_RD (GDSC-RD cell line): S | Iorio_SJCRH30 (GDSC-SJCRH30 cell line): R | apoptosis induction (Ewing’s sarcoma): induces p53-independent apoptosis

CN(C)CCOc1ccc(-c2nc(-c3ccncc3)c(-c3ccc4c(c3)CC/C4=N\O)[nH]2)cc1 [SB590885]
anti-proliferation / anti-cancer activity in RD cells [1]: higher anti-cancer activity | IC50 ([1]; Homo sapiens): 2.52 µM | IC50 ([2]; Homo sapiens, CCD-18Co, MTT): 4.88 µM | Iorio_SJCRH30 (GDSC-SJCRH30 cell line): R

Cc1cnc(Nc2ccc(OCCN3CCCC3)cc2)nc1Nc1cccc(S(=O)(=O)NC(C)(C)C)c1 [fedratinib]
anti-proliferation / anti-cancer activity in RD cells [1]: high non-selective anti-proliferation activity; also recorded: high in vitro sensitivity | anti-proliferation / anti-cancer activity in SJCRH30 cells [3]: high non-selective anti-proliferation activity; also recorded: high in vitro sensitivity | toxicity toward the CCD-18Co control line ([2]; MTT, in words): toxicity toward the control line; also recorded: highly sensitive | Iorio_RD (GDSC-RD cell line): R | GDSC-RD drug response (GDSC-RD cell line): resistance | Iorio_SJCRH30 (GDSC-SJCRH30 cell line): R

CCc1cc2c(cc1N1CCC(N3CCOCC3)CC1)C(C)(C)c1[nH]c3cc(C#N)ccc3c1C2=O [Alectinib]
anti-proliferation / anti-cancer activity in SJCRH30 cells [3]: higher anti-cancer activity | IC50 [3, 5]: 3.21 µM | IC50 ([2]; Homo sapiens, CCD-18Co, MTT): 5.96 µM | Iorio_RD (GDSC-RD cell line): R | Iorio_SJCRH30 (GDSC-SJCRH30 cell line): S

O=C(CCCCCCC(=O)Nc1ccccc1)NO [Vorinostat]
anti-proliferation / anti-cancer activity in SJCRH30 cells [3]: higher anti-cancer activity; also recorded: reduced cells proliferation to a greater degree than the clinical drugs | caspase-3/7 activation (SJCRH30 cells): increased level of caspase-3/7 activation | Iorio_SJCRH30 (GDSC-SJCRH30 cell line): S | patients with long-term disease stabilization [4]: 6 of the 40 | uterine sarcoma growth (uterine sarcoma): inhibited the uterine sarcoma growth
